Experimental data reported in patent publication US6329349A, “Methods for reducing ischemic injury of the heart via the sequential administration of monophosphoryl lipid A and adenosine receptor agents” (priority 2000, dated 2001).
“Also recorded” adds a separate entry of the source. Read-outs that look alike come from different tables or passages of the source.

Legend:
[1] = tested on: Rat Brain A1 and A2 -Receptors; conditions: radioligand binding, Table I; cited from earlier work
[2] = tested on: cultured chick ventricular myocytes; test: Simulated ischemia (hypoxia and glucose deprivation) injury in cultured ventricular myocytes, percentage of cells killed; assay type: cell-based; conditions: for number of cells killed; agent present during prolonged ischemia after MLA pretreatment vs vehicle pretreatment: MLA 300 ng/ml for 4 h, 24 h prior, agent present during 90 min simulated ischemia; for percentage of myocytes killed; preconditioning effect of the agent after MLA pretreatment vs vehicle pretreatment: MLA (30 or 300 ng/ml) 24 h prior to 5 min exposure to the agent, 10 min agent-free, then 90 min simulated ischemia
Experimental: Ventricular cells were cultured from chick embryos 14 days in ovo (Spafas Inc., Storrs, Conn.) as previously described (16, 23). Cells were cultivated in a humidified 5% CO2 -95% air mixture at 37 C. […] The medium was changed to a HEPES-buffered medium containing (mM) 139 NaCl, 4.7 KCl, 0.5 MgCl2, 0.9 CaCl2, 5 HEPES (N-2-hydroxyethylpiperazine-N'-2-ethanesulfonic acid) and 2% fetal bovine serum, pH 7.4, 37 C. before exposing the myocytes to the various conditions at 37 C. Control myocytes were maintained in HEPES-buffered medium under room air. Hypoxia and glucose deprivation were used to induce and simulate ischemia in the cultured cells. Hypoxia was produced by placing the cells in a hypoxic incubator (NuAire) where O2 was replaced by N2 as previously described (16,23).
The extent of hypoxia-induced injury to the ventricular cell was quantitatively determined by the percentages of cells killed. To quantitate the % of cells killed, cells were exposed to a trypsin-EDTA Hanks' balanced salt solution for 10 minutes for detachment after the various treatment, followed by centrifugation (300×g for 10 minutes) and resuspension in culture media for counting in a hemocytometer. Only live cells sedimented and the cells counted represented those that survived (46). None of the sedimented cells subsequently counted included trypan blue. […] There was no protein in the culture media following a second 300×g centrifugation of resuspended cells previously treated with trypsin-EDTA.
The percentage of cells killed was calculated as the number of cells obtained from the control group (representing cells not subjected to any hypoxia or drug treatment) minus the number of cells from the treatment group divided by number of cells in control group multiplied by 100%. […]
In this experiment, myocytes were treated with either the vehicle (0.04% propylene glycol, 0.01% ethyl alcohol) or MLA 24 hours prior to a 5 minute exposure to 10 μM adenosine. Adenosine was removed by replacement of the culture medium with adenosine-free medium, and the cells were exposed to normal room air O2 for 10 minutes, followed by 90 minutes of simulated ischemia treatment.
The experimental protocol utilized in these studies entailed pretreatment of myocytes with MLA for a 4 hour period 24 hours prior to exposure of the cardiac myocytes to 90 minutes of simulated ischemia. During this 90 minute simulated ischemia period, several cardioprotective agents were administered individually to cells and their protective effects were assessed.
Additional experiments were performed to assess the differences in cardioprotection observed when MLA was administered as the second cardioprotective agent and an adenosine agonist, KATP channel opener or protein kinase C activator was administered as the first cardioprotective agent. The experiments were performed as follows: Cardiac myocytes were exposed to the first cardioprotective agent for 5 minutes and the agent was removed. Cells were then exposed to a period of simulated ischemia in the presence or absence of 300 ng/ml of MLA. The percentage of cells killed by simulated ischemia alone was 27±2% (n=9) in the absence of any treatment with any cardioprotective agent. When MLA was present during the simulated ischemia, the percentage of cells killed was reduced from 27±2% to 14±1.2%. When cells were exposed to 5 minutes of 10 μM pinacidil, a KATP channel opener followed by exposure to simulated ischemia (in the absence of MLA), the percentage of cells killed was 12.3±1. When the pinacidil-treated cells were exposed to simulated ischemia in the presence of MLA, the percentage of cells killed was reduced from 12.3±1% to 6.3±1.2% (n=3). When cells were exposed to 5 minutes of 1 μM PMA, a PKC activator, followed by exposure to simulated ischemia (in the absence of MLA), the percentage of cells killed was 14±1. […]

A1 adenosine receptor = conditions: Table II; cited from earlier work
A2a adenosine receptor = conditions: Table II; cited from earlier work
A3 adenosine receptor = conditions: cited from earlier work
A2 = conditions: table of Compound 8; cited from earlier work
[3] = 5 min exposure to first agent (10 μM pinacidil, 1 μM PMA or 10 μM adenosine), removed, then simulated ischemia in the absence of MLA
[4] = 5 min exposure to first agent (10 μM pinacidil, 1 μM PMA or 10 μM adenosine), removed, then simulated ischemia in the presence of 300 ng/ml MLA

For `COc1ccccc1/C=C/c1nc2c(c(=O)n(C)c(=O)n2C)n1C` [17b], the “A1 /A2 ratio” value [1] is listed as 18.
In the case of `COc1cccc(/C=C/c2nc3c(c(=O)n(C)c(=O)n3C)n2C)c1` [19b], the “A1 /A2 ratio” value [1] is listed as 64.
In the case of `Cn1c(=O)c2c(nc(/C=C/c3cccc(C(F)(F)F)c3)n2C)n(C)c1=O` [20b], the “A1 /A2 ratio” value [1] is given as 25.
For `Cn1c(=O)c2c(nc(/C=C/c3cccc([N+](=O)[O-])c3)n2C)n(C)c1=O` [21b], the “A1 /A2 ratio” value [1] is given as 11.
In the case of `Cn1c(=O)c2c(nc(/C=C/c3cccc(N)c3)n2C)n(C)c1=O` [22b], the “A1 /A2 ratio” value [1] is listed as 30.
In the case of `Cn1c(=O)c2c(nc(/C=C/c3cccc(F)c3)n2C)n(C)c1=O` [27b], the “A1 /A2 ratio” value [1] is given as 190.
In the case of `COc1ccc(/C=C/c2nc3c(c(=O)n(C)c(=O)n3C)n2C)cc1` [29b], the “A1 /A2 ratio” value [1] is given as 44.
For `COc1ccc(/C=C/c2nc3c(c(=O)n(C)c(=O)n3C)n2C)cc1OC` [32b], the “A1 /A2 ratio” value [1] is listed as 70.
For `COc1cc(/C=C/c2nc3c([nH]2)c(=O)n(C)c(=O)n3C)cc(OC)c1` [33a], the “A1 /A2 ratio” value [1] is given as 25.
For `COc1cc(/C=C/c2nc3c(c(=O)n(C)c(=O)n3C)n2C)cc(OC)c1` [33b], the “A1 /A2 ratio” value [1] is given as greater than 200.
In the case of `Cn1c(=O)c2c(nc(/C=C/c3cc(F)cc(F)c3)n2C)n(C)c1=O` [34b], the “A1 /A2 ratio” value [1] is given as 230.
For `COc1ccc(/C=C/c2nc3c(c(=O)n(C)c(=O)n3C)n2C)c(OC)c1OC` [43b], the “A1 /A2 ratio” value [1] is listed as 34.
For `COc1cc(/C=C/c2nc3c(c(=O)n(C)c(=O)n3C)n2C)cc(OC)c1OC` [44b], the “A1 /A2 ratio” value [1] is listed as 70.
For `CCCn1c(=O)c2c(nc(/C=C/c3cc(OC)cc(OC)c3)n2C)n(CCC)c1=O` [53b], the “A1 /A2 ratio” value [1] is given as 110.
In the case of `OC[C@H]1O[C@@H](n2cnc3c(NC4CCCC4)nc(Cl)nc32)[C@H](O)[C@@H]1O` [CCPA, 2-chloro-N^6-cyclopentyl-adenosine], the “number of cells killed; agent present during prolonged ischemia after MLA pretreatment vs vehicle pretreatment” value (from here on “number of cells killed … vs vehicle pretreatment”) [2] is reported as “greater reduction in the number of cells killed” and the “percentage of myocytes killed; preconditioning effect of the agent after MLA pretreatment vs vehicle pretreatment” value (“percentage of myocytes killed” for short) [2] is reported as “significantly reduced the percentage of myocytes killed; also recorded: enhanced by pretreatment of myocytes with MLA”.
In the case of `CCNC(=O)[C@H]1O[C@@H](n2cnc3c(NC(=O)Nc4ccccc4C(F)(F)F)ncnc32)[C@H](O)[C@@H]1O` [Compound 4d, N^6-((2-trifluoromethyl)carbamoyl)adenosine-5'uronamide], the Ki (A1 adenosine receptor) is listed as 384 nM, the Ki (A2a adenosine receptor) is listed as greater than 10000 nM and the Ki (A3 adenosine receptor; Table II) is listed as 54 nM.
For `CCNC(=O)[C@H]1O[C@@H](n2cnc3c(NC(=O)Nc4cccc(I)c4)ncnc32)[C@H](O)[C@@H]1O` [Compound 4q, N^6-((3-iodophenyl)carbamoyl)adenosine-5'uronamide], the Ki (A2a adenosine receptor) is given as 3940 nM and the Ki (A3 adenosine receptor; Table II) is given as 30 nM.
In the case of `NCCNC(=O)Cc1ccc(NC(=O)Cc2ccc(Nc3ncnc4c3ncn4[C@@H]3O[C@H](CO)[C@@H](O)[C@H]3O)cc2)cc1` [Compound 8], the Ki (A3 adenosine receptor; table of Compound 8) is listed as 4 nM and the Ki (A2) is listed as 210 nM.
For `CNC(=O)[C@H]1O[C@@H](n2cnc3c(NOc4ccccc4)ncnc32)[C@H](O)[C@@H]1O` [Compound 11, 6-(O-Phenylhydroxylamino)purine-9-beta-ribofuranoside-5'-N-methyluronamide], the Ki (A1 adenosine receptor) is listed as 2060 nM, the Ki (A2a adenosine receptor) is listed as 66300 nM and the Ki (A3 adenosine receptor; Table II) is listed as 1340 nM.
For `CNC(=O)[C@H]1O[C@@H](n2cnc3c(NCc4cccc(I)c4)ncnc32)[C@H](O)[C@@H]1O` [IB-MECA, N^6-(3-iodobenzyl)adenosine-5'-N-methyluronamide], the “number of cells killed … vs vehicle pretreatment” value [2] was “synergistic cardioprotective effect” and the “percentage of myocytes killed” value [2] was “significantly reduced the percentage of myocytes killed; also recorded: enhanced by pretreatment of myocytes with MLA”.
In the case of `CCNC(=O)[C@H]1O[C@@H](n2cnc3c(NC4CCCCC4)ncnc32)[C@H](O)[C@@H]1O` [N^6 -cyclohexyl NECA, N6-cyclohexyl 5'-N-ethylcarboxamidoadenosine], the Ki (A1 adenosine receptor) is given as 0.43 nM, the Ki (A2a adenosine receptor) is given as 170 nM and the Ki (A3 adenosine receptor; Table II) is given as 16 nM.
In the case of `CCCCCCCCCCCCCC(=O)O[C@@H]1[C@@H](C)[C@@]2(O)[C@@H](C=C(CO)C[C@]3(O)C(=O)C(C)=C[C@@H]23)[C@@H]2C(C)(C)[C@]12OC(C)=O` [PMA, Phorbol 12-myristate 13-acetate], the “percentage of cells killed” value [2, 3] is reported as 14±1%, the “percentage of cells killed” value [2, 4] is reported as 10.5±1% and the “percentage of myocytes killed” value [2] is reported as “enhanced by pretreatment with MLA”.
For `Nc1ncnc2c1ncn2[C@@H]1O[C@H](CO)[C@@H](O)[C@H]1O` [adenosine], the “percentage of cells killed” value [2, 3] was 12±1.4%, the “percentage of cells killed” value [2, 4] was 7.4±1.2% and the “percentage of myocytes killed” value [2] was “significantly decreased the percentage of myocytes killed”.
For `CC(=O)Nc1cccc(/C=C/c2nc3c(c(=O)n(C)c(=O)n3C)n2C)c1` [compound 23], the “A1 /A2 ratio” value [1] is given as 240.
In the case of `Cn1c(=O)c2c(nc(/C=C/c3cccc(NC(=O)CCC(=O)O)c3)n2C)n(C)c1=O` [compound 24], the “A1 /A2 ratio” value [1] is listed as 250.
In the case of `Cn1c(=O)c2c(nc(/C=C/c3cccc(NC(=O)OC(C)(C)C)c3)n2C)n(C)c1=O` [compound 25], the “A1 /A2 ratio” value [1] is given as 30.
For `Cn1c(=O)c2c(nc(/C=C/c3cccc(N(C(=O)OC(C)(C)C)C(=O)OC(C)(C)C)c3)n2C)n(C)c1=O` [compound 26], the “A1 /A2 ratio” value [1] is listed as 15.
For `COc1cc(/C=C/c2nc3c(c(=O)n(C)c(=O)n3C)n2C)cc(OC)c1O` [compound 35], the “A1 /A2 ratio” value [1] is given as 19.
In the case of `COc1cc(/C=C/c2nc3c(c(=O)n(C)c(=O)n3C)n2C)cc(OC)c1OC(C)=O` [compound 36], the “A1 /A2 ratio” value [1] is listed as 93.
In the case of `COc1cc(/C=C/c2nc3c(c(=O)n(C)c(=O)n3C)n2C)cc(OC)c1OCCCCN` [compound 38], the “A1 /A2 ratio” value [1] is listed as 36.
For `COc1cc(/C=C/c2nc3c(c(=O)n(C)c(=O)n3C)n2C)cc(OC)c1OCCCCNC(=O)OC(C)(C)C` [compound 39], the “A1 /A2 ratio” value [1] is given as 42.
For `COc1cc(/C=C/c2nc3c(c(=O)n(C)c(=O)n3C)n2C)cc(OC)c1OC/C=C/CN` [compound 40], the “A1 /A2 ratio” value [1] is listed as 28.
For `COc1cc(/C=C/c2nc3c(c(=O)n(C)c(=O)n3C)n2C)cc(OC)c1OC/C=C/CNC(C)=O` [compound 41], the “A1 /A2 ratio” value [1] is listed as greater than 50.
For `COc1cc(/C=C/c2nc3c(c(=O)n(C)c(=O)n3C)n2C)cc(OC)c1OC/C=C/CNC(=O)OC(C)(C)C` [compound 42], the “A1 /A2 ratio” value [1] is listed as greater than 40.
For `C=CCn1c(=O)c2c(nc(/C=C/c3cc(OC)c(OC)c(OC)c3)n2C)n(CC=C)c1=O` [compound 46], the “A1 /A2 ratio” value [1] is listed as 13.
For `CC(N/C(=N\C#N)Nc1ccncc1)C(C)(C)C` (centres unmarked) [pinacidil], the “percentage of cells killed” value [2, 3] was 12.3±1%, the “percentage of cells killed” value [2, 4] was 6.3±1.2% and the “number of cells killed … vs vehicle pretreatment” value [2] was “greater reduction in the number of cells killed”. The “percentage of myocytes killed” value [2] was “enhanced the preconditioning response mediated by pinacidil”.
For Monophosphoryl lipid A [MLA], the “percentage of cells killed” value ([2]; 300 ng/ml MLA present during simulated ischemia, no first agent, untreated 27±2%) was 14±1.2%, the “percentage of cell death in response to prolonged ischemia” value ([2]; MLA 30 and 300 ng/ml for 4 h, 24 h prior to 90 min simulated ischemia, vs untreated, p<0.01) was “significantly lowered the percentage of cell death” and the “percentage of cells killed during prolonged ischemia after preconditioning ischemia” value ([2]; MLA 4 h pretreatment, 24 h later 5 min preconditioning ischemia, 10 min recovery, 90 min simulated ischemia) was “dose-dependent reduction in the percentage of cells killed”.
